Assay results as given in patent publication US20230382909A1, “BICYCLIC COMPOUNDS” (Aligos Therapeutics, Inc., priority 2022, published 2023).
Structures can show the parent of a compound that is named as a salt.

How the values were obtained:
[1] = Cell viability by CellTiter-Glo 2.0 (intracellular ATP content) in HepG2.117 cells; format: cell-based; details: human, CellTiter-Glo 2.0, 3 days incubation
Method: (§1) The following assay procedure describes the HBV antiviral assay, using HepG2.117 cells, which carry a stably integrated genotype D HBV genome under the control of a Tet-off promoter, and intracellular HBV DNA quantification as endpoint. Cell viability is assessed in parallel by measuring the intracellular ATP content using CellTiter-Glo 2.0 (Promega).
(§2) On day 1, medium is removed from each well, the test articles are diluted in culture medium without doxcycyline and 100 μL was added to cell culture wells (9 concentrations, 4-fold dilution). For each plate, 6 untreated (merely DMSO) wells are included. The final concentration of DMSO in the culture medium is 2%. Each plate is prepared in duplicate (one for HBV DNA extraction, one for CellTiter-Glo 2.0 measurement). The cells are incubated at 37° C. and 5% CO2 for 3 days.
(§3) On day 4, cell viability is assessed using CellTiter-Glo 2.0 and cell lysates are prepared for HBV DNA extraction and subsequent quantification by qPCR.
Using the other plates, the cell viability is quantified by CellTiter-Glo 2.0 according to the manufacturer's manual. In brief, 100 μL of reagent solution is added to the culture plates and shaken for 2′. The plates are incubated at rt for 10 min and luminescence signal is subsequently measured on a VarioSkan Lux (ThermoFisher) plate reader.
(§4) Cell viability is calculated as follows: % Cell viability=(luminescence value of test sample)/(average luminescence value of 2% DMSO control)×100%. HBV DNA inhibition was calculated as follows: 100−(HBV DNA copy number of test sample)/(average HBV DNA copy number of 2% DMSO control)×100%. No normalization to entecavir is required due to the excellent dynamic window of this assay. The CC50, EC50 and EC9o values were determined by dose-response curves fitted using non-linear regression.

[2] = system: HBV; test: HBV-DNA antiviral assay using HepG2.117 cells; format: cell-based, HBV genotype D; details: Hepatitis B virus, HepG2.117, 72 h
Method: as §1
On day 0, HepG2.117 cells (which are maintained in routine cell culture with doxycycline present in the medium at a final concentration of 1 μg/mL) are seeded in 96-well plates (white with clear bottom) at a density of 2.0×10^4 cells/well (0.1 mL/well) in medium without doxycycline to induce pgRNA transcription and subsequent formation of HBV particles. The cells are incubated at 37° C. and 5% CO2.
as §2, §3
HBV DNA Quantification by qPCR
Medium is removed from each well and 100 μL of 0.33% NP-40 in H2O was added to each well. Plates are sealed, incubated at 4° C. for 5 mins, vortexed extensively and centrifuged briefly. Next, 35 μL of lysate is added to 65 μL QuickExtract DNA Extraction Solution (Epicentre) in a PCR plate for each well. PCR plate is incubated at 65° C. for 6 mins, 98° C. for 2 mins and finally cooled to 4° C. HBV DNA is then quantified by qPCR with HBV-specific primers and probes as specified in Table 3 using the Bio-Rad SSOAdvanced Universal Probes Supermix on a CFX96 machine (Bio-Rad). The PCR cycle program consisted of 95° C. for 3 mins, followed by 40 cycles at 95° C. for 10 sec and 60° C. for 30 sec.
A DNA standard is prepared by dilution of an IDT gBlock corresponding to the amplicon with concentrations ranging from 10^2 to 10^8 copies/input (i.e., per 4 μL) and used to generate a standard curve by plotting Cq values vs. HBV DNA standard concentration. The quantity of HBV DNA in each sample is determined by interpolating from the standard curve.
as §4

SMILES | CC50 at 3 days [1] [nM] | EC50 [2] [nM]
Cc1cc(C)n(-c2nc3c(c(=O)n2-c2ccc(NC(C)C)nc2)C[C@@H](C)N(C(=O)c2ccc(Br)c(C(F)(F)F)c2)C3)n1 [Compound 25, (6R)-7-[4-bromo-3-(trifluoromethyl)benzoyl]-2-(3,5-dimethylpyrazol-1-yl)-3-[6-(isopropylamino)-3-pyridyl]-6-methyl-6,8-dihydro-5H-pyrido[3,4-d]pyrimidin-4-one] | > 500 | < 50
CNC(=O)c1ccc(-n2c(-n3nc(C)cc3C)nc3c(c2=O)C[C@@H](C)N(C(=O)c2ccc(Br)c(C(F)(F)F)c2)C3)cc1N [Compound 24, 2-amino-4-[(6R)-7-[4-bromo-3-(trifluoromethyl)benzoyl]-2-(3,5-dimethylpyrazol-1-yl)-6-methyl-4-oxo-6,8-dihydro-5H-pyrido[3,4-d]pyrimidin-3-yl]-N-methyl-benzamide] | > 500 | < 50
Cc1cc(C)n(-c2nc3c(c(=O)n2-c2ccc(OC[C@@H](C)O)cc2)C[C@@H](C)N(C(=O)c2ccc(Br)c(C(F)(F)F)c2)C3)n1 [Compound 14, (6R)-7-[4-bromo-3-(trifluoromethyl)benzoyl]-2-(3,5-dimethylpyrazol-1-yl)-3-[4-[(2R)-2-hydroxypropoxy]phenyl]-6-methyl-6,8-dihydro-5H-pyrido[3,4-d]pyrimidin-4-one] | > 500 | < 50
CNC(=O)c1ccc(-n2c(-n3nc(C)cc3C)nc3c(c2=O)C[C@@H](C)N(C(=O)c2ccc(Br)c(C(F)(F)F)c2)C3)cn1 [Compound 18, 5-[(6R)-7-[4-bromo-3-(trifluoromethyl)benzoyl]-2-(3,5-dimethylpyrazol-1-yl)-6-methyl-4-oxo-6,8-dihydro-5H-pyrido[3,4-d]pyrimidin-3-yl]-N-methyl-pyridine-2-carboxamide] | > 500 | < 50
Cc1cc(C)n(-c2nc3c(c(=O)n2-c2ccc(O[C@H]4C[C@@H](O)C4)cc2)C[C@@H](C)N(C(=O)c2ccc(Br)c(C(F)(F)F)c2)C3)n1 [Compound 37, (R)-7-(4-bromo-3-(trifluoromethyl)benzoyl)-2-(3,5-dimethyl-1H-pyrazol-1-yl)-3-(4-((1s,3S)-3-hydroxycyclobutoxy)phenyl)-6-methyl-5,6,7,8-tetrahydropyrido[3,4-d]pyrimidin-4(3H)-one] | > 500 | < 50
Cc1cc(C)n(-c2nc3c(c(=O)n2-c2ccc(N4CC[C@H](O)C4)nc2)C[C@@H](C)N(C(=O)c2ccc(Br)c(C(F)(F)F)c2)C3)n1 [Compound 33, (6R)-7-[4-bromo-3-(trifluoromethyl)benzoyl]-2-(3,5-dimethylpyrazol-1-yl)-3-[6-[(3S)-3-hydroxypyrrolidin-1-yl]-3-pyridyl]-6-methyl-6,8-dihydro-5H-pyrido[3,4-d]pyrimidin-4-one] | > 500 | < 50
Cc1cc(C)n(-c2nc3c(c(=O)n2-c2ccc(O[C@H]4C[C@@H](O)C4)nc2)C[C@@H](C)N(C(=O)c2ccc(Br)c(C(F)(F)F)c2)C3)n1 [Compound 39, (R)-7-(4-bromo-3-(trifluoromethyl)benzoyl)-2-(3,5-dimethyl-1H-pyrazol-1-yl)-3-(6-((1s,3S)-3-hydroxycyclobutoxy)pyridin-3-yl)-6-methyl-5,6,7,8-tetrahydropyrido[3,4-d]pyrimidin-4(3H)-one] | > 500 | < 50
Cc1cc(C)n(-c2nc3c(c(=O)n2-c2cnc4c(ncn4C)n2)C[C@@H](C)N(C(=O)c2ccc(Br)c(C(F)(F)F)c2)C3)n1 [Compound 20, (6R)-7-[4-bromo-3-(trifluoromethyl)benzoyl]-2-(3,5-dimethylpyrazol-1-yl)-6-methyl-3-(1-methylimidazo[4,5-b]pyrazin-5-yl)-6,8-dihydro-5H-pyrido[3,4-d]pyrimidin-4-one] | > 500 | < 50
Cc1cc(C)n(-c2nc3c(c(=O)n2-c2ccc(OC[C@H](O)CO)cc2)C[C@@H](C)N(C(=O)c2ccc(Br)c(C(F)(F)F)c2)C3)n1 [Compound 7, (R)-7-(4-bromo-3-(trifluoromethyl)benzoyl)-3-(4-((R)-2,3-dihydroxypropoxy)phenyl)-2-(3,5-dimethyl-1H-pyrazol-1-yl)-6-methyl-5,6,7,8-tetrahydropyrido[3,4-d]pyrimidin-4(3H)-one] | > 500 | < 50
Cc1cc(C)n(-c2nc3c(c(=O)n2-c2ccc(N4CCN(C)CC4)nc2)C[C@@H](C)N(C(=O)c2ccc(Br)c(C(F)(F)F)c2)C3)n1 [Compound 11, (R)-7-(4-bromo-3-(trifluoromethyl)benzoyl)-2-(3,5-dimethyl-1H-pyrazol-1-yl)-6-methyl-3-(6-(4-methylpiperazin-1-yl)pyridin-3-yl)-5,6,7,8-tetrahydropyrido[3,4-d]pyrimidin-4(3H)-one] | > 500 | < 50
Cc1cc(C)n(-c2nc3c(c(=O)n2-c2ccc4c(c2)ncn4CC(F)F)C[C@@H](C)N(C(=O)c2ccc(Br)c(C(F)(F)F)c2)C3)n1 [Compound 23, (6R)-7-[4-bromo-3-(trifluoromethyl)benzoyl]-3-[1-(2,2-difluoroethyl)benzimidazol-5-yl]-2-(3,5-dimethylpyrazol-1-yl)-6-methyl-6,8-dihydro-5H-pyrido[3,4-d]pyrimidin-4-one] | > 500 | < 50
CNc1cnc(-n2c(-n3nc(C)cc3C)nc3c(c2=O)C[C@@H](C)N(C(=O)c2ccc(Br)c(C(F)(F)F)c2)C3)nc1 [Compound 42, (R)-7-(4-bromo-3-(trifluoromethyl)benzoyl)-2-(3,5-dimethyl-1H-pyrazol-1-yl)-6-methyl-3-(5-(methylamino)pyrimidin-2-yl)-5,6,7,8-tetrahydropyrido[3,4-d]pyrimidin-4(3H)-one] | > 500 | < 50
Cc1cc(C)n(-c2nc3c(c(=O)n2-c2ccc(OC[C@H](C)OP(=O)(O)O)cc2)C[C@@H](C)N(C(=O)c2ccc(Br)c(C(F)(F)F)c2)C3)n1 [Compound 12, (S)-1-(4-((R)-7-(4-bromo-3-(trifluoromethyl)benzoyl)-2-(3,5-dimethyl-1H-pyrazol-1-yl)-6-methyl-4-oxo-5,6,7,8-tetrahydropyrido[3,4-d]pyrimidin-3(4H)-yl)phenoxy)propan-2-yl dihydrogen phosphate] | > 500 | 50 to 500
Cc1cc(C)n(-c2nc3c(c(=O)n2-c2ncc(N)cn2)C[C@@H](C)N(C(=O)c2ccc(Br)c(C(F)(F)F)c2)C3)n1 [Compound 41, (R)-3-(5-aminopyrimidin-2-yl)-7-(4-bromo-3-(trifluoromethyl)benzoyl)-2-(3,5-dimethyl-1H-pyrazol-1-yl)-6-methyl-5,6,7,8-tetrahydropyrido[3,4-d]pyrimidin-4(3H)-one] | > 500 | < 50
Cc1cc(C)n(-c2nc3c(c(=O)n2-c2ccc(N4CCNCC4)nc2)C[C@@H](C)N(C(=O)c2ccc(Br)c(C(F)(F)F)c2)C3)n1 [Compound 10, (R)-7-(4-bromo-3-(trifluoromethyl)benzoyl)-2-(3,5-dimethyl-1H-pyrazol-1-yl)-6-methyl-3-(6-(piperazin-1-yl)pyridin-3-yl)-5,6,7,8-tetrahydropyrido[3,4-d]pyrimidin-4(3H)-one hydrochloride] | > 500 | < 50
Cc1cc(C)n(-c2nc3c(c(=O)n2-c2cc(F)c4c(c2)ncn4C)C[C@@H](C)N(C(=O)c2ccc(Br)c(C(F)(F)F)c2)C3)n1 [Compound 22, (6R)-7-[4-bromo-3-(trifluoromethyl)benzoyl]-2-(3,5-dimethylpyrazol-1-yl)-3-(7-fluoro-1-methyl-benzimidazol-5-yl)-6-methyl-6,8-dihydro-5H-pyrido[3,4-d]pyrimidin-4-one] | > 500 | < 50
